Values quoted from earlier work as cited in patent US11896953B2, “HLB copolymers” (Sigma-Aldrich Co. LLC, priority 2017, dated 2024).

settings: 20-analyte mix for extended screening (Table 22)

SMILES | Log P
CN(C)CCC=C1c2ccccc2CCc2ccccc21 [Amitriptyline] | 5.10
CN1CCCCC1CCN1c2ccccc2Sc2ccc([S+](C)[O-])cc21 (centres unmarked) [Mesoridazine] | 3.90
CN(C)CCN(Cc1cccs1)c1ccccn1 [Methapyrilene] | 2.87
N=C(N)NC(=O)c1nc(Cl)c(N)nc1N [Amiloride] | −0.30
CCCCc1nc(Cl)c(CO)n1Cc1ccc(-c2ccccc2-c2nn[nH]n2)cc1 [Losartan] | 6.10
CN1[C@H]2CC[C@@H]1[C@@H](C(=O)O)[C@@H](OC(=O)c1ccccc1)C2 [Benzoylecgonine] | 1.71
CN1CCN2c3ccccc3Cc3ccccc3C2C1 (centres unmarked) [Mianserin] | 3.52
CN1CCN2c3ncccc3Cc3ccccc3C2C1 (centres unmarked) [Mirtazapine] | 2.90
O=[N+]([O-])NC1=NCCN1Cc1ccc(Cl)nc1 [Imidacloprid] | 0.57
CCc1nn(CCCN2CCN(c3cccc(Cl)c3)CC2)c(=O)n1CCOc1ccccc1 [Nefazodone] | 4.70
CNC(=C[N+](=O)[O-])NCCSCc1csc(CN(C)C)n1 [Nizatidine] | 1.10
Cc1ccnc2c1NC(=O)c1cccnc1N2C1CC1 [Nevirapine] | 2.50
CC[C@H]1OC(=O)[C@H](C)[C@@H](O[C@H]2C[C@@](C)(OC)[C@@H](O)[C@H](C)O2)[C@H](C)[C@@H](O[C@@H]2O[C@H](C)C[C@H](N(C)C)[C@H]2O)[C@](C)(OC)C[C@@H](C)C(=O)[C@H](C)[C@@H](O)[C@]1(C)O [Clarithromycin] | 3.16

same assay, conditions: analytes of the six analyte preliminary screen (Table 18)

SMILES | Log P
Oc1ccc2ccc(O)cc2c1 [2,7-dihydroxynaphthalene] | 2.3
Cc1ccc(C(N)=O)cc1 [p-Toluamide] | 1.2

same assay, conditions: eight analytes of the 3-step protocol evaluations (Table 25)

SMILES | Log P
CNCCCC1c2ccccc2C=Cc2ccccc21 [Protriptyline] | 4.70

same assay, conditions: hydrophilic monomers

SMILES | log P
C=CC#N [acrylonitrile] | 0.25
